In patent US10633372B2, “Process for the preparation of amorphous (1S)-1,5-anhydro-1-[3-[[5-(4 fluorophenyl)-2-thienyl]-4-methylphenyl]-D-glucitol and its polymorphs thereof” (MSN LABORATORIES PRIVATE LIMITED, priority 2015, dated 2020):

Assays:
[1] = Particle size distribution; assay type: physicochemical
[2] = cited from earlier work
[3] = as mentioned in WO2008/069327 A1; cited from earlier work

Compound | Particle size distribution D(0.1) [1] [μm] | Particle size distribution D(0.5) [1] [μm] | Particle size distribution D(0.9) [1] [μm] | physical change between the sorption/desorption cycle ([2]; DVS, two cycles, appearance changed as humidity increased from 70% to 90% RH) | hygroscopic nature confirmed by Dynamic vapor sorption (DVS) analysis ([2]; amorphous canagliflozin prepared per US'487 A1 (toluene solution into n-heptane)) | stability and handling of amorphous form [3]
Cc1ccc([C@@H]2O[C@H](CO)[C@@H](O)[C@H](O)[C@H]2O)cc1Cc1ccc(-c2ccc(F)cc2)s1 [Example-2, (1S)-1,5-anhydro-1-[3-[[5-(4-fluorophenyl)-2-thienyl]methyl]-4-methylphenyl]-D-glucitol] | 3.29 | 7.69 | 14.5 | – | – | –
Cc1ccc([C@@H]2O[C@H](CO)[C@@H](O)[C@H](O)[C@H]2O)cc1Cc1ccc(-c2ccc(F)cc2)s1 [Example-4, (1S)-1,5-anhydro-1-[3-[[5-(4-fluorophenyl)-2-thienyl]methyl]-4-methylphenyl]-D-glucitol] | 28.7 | 61.4 | 116.4 | – | – | –
Cc1ccc([C@@H]2O[C@H](CO)[C@@H](O)[C@H](O)[C@H]2O)cc1Cc1ccc(-c2ccc(F)cc2)s1 [amorphous canagliflozin, (1S)-1,5-anhydro-1-[3-[[5-(4-fluorophenyl)-2-thienyl]methyl]-4-methylphenyl]-D-glucitol] | – | – | – | conversion or partial conversion from the amorphous state to a crystalline state | hygroscopic | suffers from stability and handling issues such as poor filterability
